In ChEMBL document CHEMBL2073841, “ATP-dependent transport of aflatoxin B1 and its glutathione conjugates by the product of the multidrug resistance protein (MRP) gene” (Mol Pharmacol, 1997):

Biological target: MRP1 (Multidrug resistance-associated protein 1) (Homo sapiens, UniProt P33527)
Assay: TP_TRANSPORTER: uptake in membrane vesicle from MRP1-expressing HeLa cells
Format: functional, cell membranes
Details: membrane vesicles from MRP1-expressing HeLa cells

Chain of MRP1 (Multidrug resistance-associated protein 1) (P33527 whole entry): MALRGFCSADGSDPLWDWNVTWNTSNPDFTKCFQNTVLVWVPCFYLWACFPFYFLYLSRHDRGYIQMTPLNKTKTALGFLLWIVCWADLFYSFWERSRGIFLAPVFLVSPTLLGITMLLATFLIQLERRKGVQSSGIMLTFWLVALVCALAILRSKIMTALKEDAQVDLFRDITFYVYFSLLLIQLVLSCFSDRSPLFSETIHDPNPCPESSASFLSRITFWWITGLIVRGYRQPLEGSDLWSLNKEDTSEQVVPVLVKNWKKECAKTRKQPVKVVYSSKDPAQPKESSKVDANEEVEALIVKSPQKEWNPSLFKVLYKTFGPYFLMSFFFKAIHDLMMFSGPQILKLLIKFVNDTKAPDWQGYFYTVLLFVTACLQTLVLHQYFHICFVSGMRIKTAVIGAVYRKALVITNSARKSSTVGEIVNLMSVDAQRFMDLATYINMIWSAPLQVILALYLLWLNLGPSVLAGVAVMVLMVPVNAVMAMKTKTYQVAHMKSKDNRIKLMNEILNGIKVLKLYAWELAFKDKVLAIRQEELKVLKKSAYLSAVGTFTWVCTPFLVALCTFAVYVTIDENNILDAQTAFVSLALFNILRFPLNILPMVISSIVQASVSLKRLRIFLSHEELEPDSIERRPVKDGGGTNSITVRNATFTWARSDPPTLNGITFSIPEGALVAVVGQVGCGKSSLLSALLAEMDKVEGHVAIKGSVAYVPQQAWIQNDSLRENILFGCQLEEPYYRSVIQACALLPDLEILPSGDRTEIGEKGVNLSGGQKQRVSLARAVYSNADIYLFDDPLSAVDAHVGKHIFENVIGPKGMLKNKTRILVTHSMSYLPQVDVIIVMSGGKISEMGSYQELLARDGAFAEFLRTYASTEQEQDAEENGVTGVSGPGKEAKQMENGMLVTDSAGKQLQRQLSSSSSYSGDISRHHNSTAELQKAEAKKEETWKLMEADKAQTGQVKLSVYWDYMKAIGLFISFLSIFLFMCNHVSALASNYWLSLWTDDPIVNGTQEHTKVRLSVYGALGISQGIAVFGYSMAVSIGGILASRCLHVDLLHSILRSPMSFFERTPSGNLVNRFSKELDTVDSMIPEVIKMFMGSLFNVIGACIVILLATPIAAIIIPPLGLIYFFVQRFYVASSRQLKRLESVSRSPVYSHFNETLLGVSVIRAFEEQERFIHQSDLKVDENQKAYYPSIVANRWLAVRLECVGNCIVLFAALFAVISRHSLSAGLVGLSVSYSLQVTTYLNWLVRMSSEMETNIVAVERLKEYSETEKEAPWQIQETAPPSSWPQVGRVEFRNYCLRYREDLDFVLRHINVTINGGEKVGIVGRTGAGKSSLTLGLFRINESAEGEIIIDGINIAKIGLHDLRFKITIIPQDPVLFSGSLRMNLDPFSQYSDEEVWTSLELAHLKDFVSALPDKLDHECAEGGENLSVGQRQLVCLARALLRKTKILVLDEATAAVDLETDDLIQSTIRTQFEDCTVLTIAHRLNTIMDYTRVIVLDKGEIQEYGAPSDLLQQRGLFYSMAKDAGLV

COc1cc2c(c3oc(=O)c4c(c13)CCC4=O)[C@H]1[C@@H](O2)O[C@H](SC[C@@H](NC(=O)CC[C@H](N)C(=O)O)C(=O)NCC(=O)O)[C@H]1O
Km: 0.189 µM
